Results as given in US20200306337A1, “Bioactive Metabolities Encoded by the Human Microbiome Using Primary Sequence Alone” (The Rockefeller University, priority 2017, published 2020).
Non-standard residues stand in square brackets, D forms with d. Residues, ends and D or L forms follow the SMILES beside them. *: point of attachment. Tetradecanoyl(3S-OH) = CCCCCCCCCCC[C@H](O)CC(=O)*

Key:
MRSA USA300 = test: Two-dimensional carbenicillin-humimycin A synergy susceptibility assay; assay type: cell-based, Staphylococcus aureus
Method: b) Synergy assays. Synergistic β-lactam-humimycin activities were assessed through a two-dimensional (2D) susceptibility assay. Two fold serial dilutions were carried out as described above. Carbenicillin (a β-lactam antibiotic) was diluted serially from left to right, and humimycin was diluted serially from top to bottom. The highest concentration tested for both antibiotics was 32 μg/mL. Fractional inhibitory concentration (FIC) is defined as the ratio of the apparent synergistic MIC divided by the MIC of the antibiotic measured alone.

MRSA clinical isolates = assay type: cell-based, S. aureus
Method: a) Standard assays. Minimal inhibitory concentration (MIC) assays were performed in duplicate in 96-well microtiter plates based on the protocol recommended by Clinical and Laboratory Standards Institute (CLSI, 2012). DMSO stock solutions of syn-BNPs (12.8 mg/mL) were added to the first well in a row and serially diluted (2 fold per transfer) across the microtiter plate. The last well was reserved for a peptide-free control. Overnight cultures of bacteria were diluted 5,000-fold and 50 μL was used as an inoculum in each well. MIC values were determined by visual inspection after 18 h incubation (37° C., static growth).

Row | Compound | MIC (MRSA USA300; Staphylococcus aureus, carbenicillin alone) [µg/mL] | MIC of carbenicillin in the presence of humimycin A (MRSA USA300; in the presence of 2 μg/mL humimycin A (0.25×MIC)) [µg/mL] | synergy with carbenicillin in inhibiting growth (MRSA USA300; FIC values ≤0.5 defines synergy, n=3) | MICs (MRSA clinical isolates) [µg/mL]
1 | CC1(C)S[C@@H]2[C@H](NC(=O)C(C(=O)O)c3ccccc3)C(=O)N2[C@H]1C(=O)O (stereo partly shown) [carbenicillin] | 32 | 1 |  | 
2 | CCCCCCCCCCC[C@H](O)CC(=O)N[C@@H](Cc1ccc(O)cc1)C(=O)N[C@@H](CO)C(=O)N[C@H](Cc1ccc(O)cc1)C(=O)N[C@@H](Cc1ccccc1)C(=O)N[C@@H](C(=O)N[C@H](C(=O)N[C@H](C(=O)O)C(C)C)C(C)C)[C@H](C)O [Humimycin A] ({Tetradecanoyl(3S-OH)}-YS[dY]F[dT]VV-OH; C-terminus assumed) |  |  | act synergistically | 8 to 128
